Experimental data from patent US5696245A, “Fructofuranosyl substituted polymers and methods for their production” (The University of Montana, priority 1995, dated 1997).
In brackets after ≈: the same amount, converted by molar mass.

Columns and labels:
[1] = Solubility of Estriol in water in presence of CD's and Fru-CD's; type: physicochemical
Protocol: (§1) The solubilities of 2 and 4 were determined as were their respective abilities to solubilize a slightly soluble drug.
Solubility of Estriol in Water in
Presence of CD's and Fru-CD's at 20° C.
Solubility in 1.5 × 10^-2 M CD

[2] = Solubility in water of CD's and Fru-CD's; type: physicochemical; conditions: 21° C. ± 1° C.
Protocol: as §1
^a determined at 21° C. ± 1° C.

invertase [3] = experiment: Inhibition of invertase (hydrolysis of sucrose); type: biochemical; conditions: for inhibition of invertase: 1:1 mole ratio with sucrose
Text: Reference is now made to the drawings accompanying the application wherein the sole Figure is a graph showing the action of invertase on sucrose in the presence of cyclodextrins and fructosyl cyclodextrins.
(§2) No inhibition was manifested by the parent CD's. […] Furthermore, provided that the Fru-α-CD is capable of transport to regions of plants or of plant cells, where invertase action occurs, then it is a potent plant growth regulator.

invertase [4] = experiment: Hydrolysis by invertase; type: biochemical; conditions: conditions of complete sucrose hydrolysis in 30 minutes
Text: as §2

Row | Solubility in water [2] [mg/mL] | hydrolysis by invertase (invertase [4]) | Compound | inhibition of invertase (invertase [3]) | other results
1 | – | – | C[C@]12CC[C@@H]3c4ccc(O)cc4CC[C@H]3[C@@H]1C[C@@H](O)[C@@H]2O [Estriol, reference compound] | – | solubility ([1]; water without CD, 20° C.): 0.023 mg/mL
2 | 1136 (≈ 876 mM) | unaffected by invertase | OC[C@H]1O[C@@](CO)(OC[C@H]2O[C@@H]3O[C@H]4[C@H](O)[C@@H](O)[C@@H](O[C@H]5[C@H](O)[C@@H](O)[C@@H](O[C@H]6[C@H](O)[C@@H](O)[C@@H](O[C@H]7[C@H](O)[C@@H](O)[C@@H](O[C@H]8[C@H](O)[C@@H](O)[C@@H](O[C@H]9[C@H](O)[C@@H](O)[C@@H](O[C@H]2[C@H](O)[C@H]3O)O[C@@H]9CO)O[C@@H]8CO)O[C@@H]7CO)O[C@@H]6CO)O[C@@H]5CO)O[C@@H]4CO)[C@@H](O)[C@@H]1O [compound 2, 6-O-(β-D-fructofuranosyl) cycloheptaamylose] | demonstrated inhibition of invertase | ability to solubilize sparingly soluble compounds by inclusion, vs parent cyclodextrins ([1]; general description): increased ability to solubilize
3 | 1054 (≈ 929 mM) | unaffected by invertase | OC[C@H]1O[C@@](CO)(OC[C@H]2O[C@@H]3O[C@H]4[C@H](O)[C@@H](O)[C@@H](O[C@H]5[C@H](O)[C@@H](O)[C@@H](O[C@H]6[C@H](O)[C@@H](O)[C@@H](O[C@H]7[C@H](O)[C@@H](O)[C@@H](O[C@H]8[C@H](O)[C@@H](O)[C@@H](O[C@H]2[C@H](O)[C@H]3O)O[C@@H]8CO)O[C@@H]7CO)O[C@@H]6CO)O[C@@H]5CO)O[C@@H]4CO)[C@@H](O)[C@@H]1O [compound 4, 6-O-(β-D-fructofuranosyl) cyclohexaamylose] | to a much greater extent, 4 demonstrated inhibition of invertase | type of invertase inhibition (invertase [3]; hydrolysis of sucrose by invertase, detailed kinetic study still required): appears to be a non-reversible inhibitor
4 | – | complete hydrolysis | OC[C@H]1O[C@@](CO)(O[C@H]2O[C@H](CO)[C@@H](O)[C@H](O)[C@H]2O)[C@@H](O)[C@@H]1O [sucrose, reference compound] | – | –
5 | 126 (≈ 130 mM) | – | OC[C@H]1O[C@@H]2O[C@H]3[C@H](O)[C@@H](O)[C@@H](O[C@H]4[C@H](O)[C@@H](O)[C@@H](O[C@H]5[C@H](O)[C@@H](O)[C@@H](O[C@H]6[C@H](O)[C@@H](O)[C@@H](O[C@H]7[C@H](O)[C@@H](O)[C@@H](O[C@H]1[C@H](O)[C@H]2O)O[C@@H]7CO)O[C@@H]6CO)O[C@@H]5CO)O[C@@H]4CO)O[C@@H]3CO [α-CD, cyclohexaamylose, reference compound] | – | –
6 | 20 (≈ 17.6 mM) | – | OC[C@H]1O[C@@H]2O[C@H]3[C@H](O)[C@@H](O)[C@@H](O[C@H]4[C@H](O)[C@@H](O)[C@@H](O[C@H]5[C@H](O)[C@@H](O)[C@@H](O[C@H]6[C@H](O)[C@@H](O)[C@@H](O[C@H]7[C@H](O)[C@@H](O)[C@@H](O[C@H]8[C@H](O)[C@@H](O)[C@@H](O[C@H]1[C@H](O)[C@H]2O)O[C@@H]8CO)O[C@@H]7CO)O[C@@H]6CO)O[C@@H]5CO)O[C@@H]4CO)O[C@@H]3CO [β-CD, cycloheptaamylose, reference compound] | – | –
